In patent US20120022107A1, “2-(PIPERIDIN-1-YL)-4-AZOLYL-THIAZOLE-5-CARBOXYLIC ACID DERIVATIVES AGAINST BACTERIAL INFECTIONS” (ASTRAZENECA AB, priority 2008, published 2012):
pIC50: −log10 of the molar value. ≈ marks a conversion by molar mass, not a printed value.

Key:
[1] = system: Sau; experiment: Sau MIC; format: cell-based, Staphylococcus aureus; conditions: for MIC: Staphylococcus aureus, read-out: Sau_MIC
[2] = system: Hinf; experiment: Hinf MIC; format: cell-based, Haemophilus influenzae; conditions: for MIC: Haemophilus influenzae, read-out: Hinf_MIC
[3] = system: Spn; experiment: Spn MIC; format: cell-based, Streptococcus pneumoniae; conditions: for MIC: Streptococcus pneumoniae, read-out: Spn_MIC
[4] = molecular target: Msmeg (Mycolicibacterium smegmatis, UniProt A0QNE0); experiment: Msmeg IC50; format: biochemical
Chain of Msmeg (A0QNE0 whole entry): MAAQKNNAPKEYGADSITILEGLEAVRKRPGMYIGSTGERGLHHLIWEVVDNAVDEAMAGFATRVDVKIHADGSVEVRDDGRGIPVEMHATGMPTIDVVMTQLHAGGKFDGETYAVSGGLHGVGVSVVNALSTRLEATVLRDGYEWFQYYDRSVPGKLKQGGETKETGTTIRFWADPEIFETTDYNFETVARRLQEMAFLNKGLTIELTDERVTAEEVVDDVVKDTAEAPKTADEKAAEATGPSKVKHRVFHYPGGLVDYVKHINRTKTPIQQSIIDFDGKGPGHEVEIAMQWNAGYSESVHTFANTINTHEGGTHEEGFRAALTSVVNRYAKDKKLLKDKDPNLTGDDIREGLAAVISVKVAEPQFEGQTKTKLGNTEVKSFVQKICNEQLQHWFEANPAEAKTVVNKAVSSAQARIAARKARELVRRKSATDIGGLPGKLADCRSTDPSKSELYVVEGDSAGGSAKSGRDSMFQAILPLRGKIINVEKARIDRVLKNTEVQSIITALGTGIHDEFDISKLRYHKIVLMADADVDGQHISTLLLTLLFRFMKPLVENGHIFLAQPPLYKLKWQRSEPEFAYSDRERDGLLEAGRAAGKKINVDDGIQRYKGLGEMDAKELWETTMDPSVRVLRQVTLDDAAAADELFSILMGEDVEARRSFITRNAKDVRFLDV

[5] = system: M. tuberculosis; experiment: MIC testing: Microplate Alamar Blue Assay; format: cell-based, Mycobacterium tuberculosis; conditions: lowest concentration preventing color change from blue to pink; for MIC: Mycobacterium tuberculosis, read-out: Mtu MIC

CO[C@H]1CN(c2nc(-c3nccn3C)c(C(=O)O)s2)CC[C@H]1NC(=O)c1[nH]c(C)c(Cl)c1Br [Example 3, 2-((3S,4R)-4-{[(3-bromo-4-chloro-5-methyl-1H-pyrrol-2-yl)carbonyl]amino}-3-methoxypiperidin-1-yl)-4-(1-methyl-1H-imidazol-2-yl)-1,3-thiazole-5-carboxylic acid]
MIC [1]: 0.125 µg/mL (≈ 0.224 µM)
MIC [2]: 0.25 µg/mL (≈ 0.448 µM)
MIC [3]: 0.125 µg/mL (≈ 0.224 µM)
pIC50 [4]: 8.22
MIC [5]: 0.125 µg/mL (≈ 0.224 µM)

CO[C@H]1CN(c2nc(-c3ncnn3CC3CC3)c(C(=O)O)s2)CC[C@H]1NC(=O)c1[nH]c(C)c(Cl)c1Br [Example 16, 2-((3S,4R)-4-(3-bromo-4-chloro-5-methyl-1H-pyrrole-2-carboxamido)-3-methoxypiperidin-1-yl)-4-(1-(cyclopropylmethyl)-1H-1,2,4-triazole-5-yl) thiazole-5-carboxylic acid]
MIC [1]: 8 µg/mL (≈ 13.4 µM)
MIC [2]: 0.25 µg/mL (≈ 0.417 µM)
MIC [3]: 0.25 µg/mL (≈ 0.417 µM)
pIC50 [4]: > 8.60
MIC [5]: 0.03 µg/mL (≈ 0.0501 µM)

CO[C@H]1CN(c2nc(-c3ncnn3C)c(C(=O)O)s2)CC[C@H]1NC(=O)c1[nH]c(C)c(Cl)c1Br [Example 1, 2-((3S,4R)-4-{[3-Bromo-4-chloro-5-methyl-1H-pyrrole-2-carbonyl]amino}-3-methoxypiperidin-1-yl)-4-(1-methyl-1H-1,2,4-triazol-5-yl)-1,3-thiazole-5-carboxylic acid]
MIC [1]: 0.116 µg/mL (≈ 0.208 µM)
MIC [2]: 8 µg/mL (≈ 14.3 µM)
MIC [3]: 0.116 µg/mL (≈ 0.208 µM)
pIC50 [4]: 8.59
MIC [5]: 0.008 µg/mL (≈ 0.0143 µM)

COCCn1ncnc1-c1nc(N2CC[C@@H](NC(=O)c3[nH]c(C)c(Cl)c3Br)[C@@H](F)C2)sc1C(=O)O [Example 20, 2-((3S,4R)-4-(3-bromo-4-chloro-5-methyl-1H-pyrrole-2-carboxamido)-3-fluoropiperidin-1-yl)-4-(1-(2-methoxyethyl)-1H-1,2,4-triazol-5-yl) thiazole-5-carboxylic acid]
MIC [1]: 0.125 µg/mL (≈ 0.212 µM)
MIC [2]: 0.125 µg/mL (≈ 0.212 µM)
MIC [3]: 0.125 µg/mL (≈ 0.212 µM)
pIC50 [4]: 8.40
MIC [5]: 0.125 µg/mL (≈ 0.212 µM)

COCCn1ncnc1-c1nc(N2CC[C@@H](NC(=O)c3[nH]c(C)c(Cl)c3Br)[C@@H](OC)C2)sc1C(=O)O [Example 19, 2-((3S,4R)-4-(3-bromo-4-chloro-5-methyl-1H-pyrrole-2-carboxamido)-3-methoxypiperidin-1-yl)-4-(1-(2-methoxyethyl)-1H-1,2,4-triazol-5-yl) thiazole-5-carboxylic acid]
MIC [1]: 0.125 µg/mL (≈ 0.207 µM)
MIC [2]: 0.25 µg/mL (≈ 0.415 µM)
MIC [3]: 0.125 µg/mL (≈ 0.207 µM)
pIC50 [4]: > 8.60
MIC [5]: 0.03 µg/mL (≈ 0.0498 µM)

Cc1[nH]c(C(=O)N[C@@H]2CCN(c3nc(-c4ncnn4C)c(C(=O)O)s3)C[C@@H]2F)c(Br)c1Cl [Example 5, 2-((3S,4R)-4-{[(3-Bromo-4-chloro-5-methyl-1H-pyrrol-2-yl)carbonyl]amino}-3-fluoropiperidin-1-yl)-4-(1-methyl-1H-1,2,4-triazol-5-yl)-1,3-thiazole-5-carboxylic acid]
MIC [1]: 0.106 µg/mL (≈ 0.194 µM)
MIC [2]: 27.3 µg/mL (≈ 50 µM)
MIC [3]: 0.106 µg/mL (≈ 0.194 µM)
pIC50 [4]: > 8.40
MIC [5]: < 0.06 µg/mL

COCCn1ccnc1-c1nc(N2CC[C@@H](NC(=O)c3[nH]c(C)c(Cl)c3Br)[C@@H](OC)C2)sc1C(=O)O [Example 7, 2-((3S,4R)-4-{[(3-Bromo-4-chloro-5-methyl-1H-pyrrol-2-yl)carbonyl]amino}-3-methoxypiperidin-1-yl)-4-[1-(2-methoxyethyl)-1H-imidazol-2-yl]-1,3-thiazole-5-carboxylic acid]
MIC [1]: 0.125 µg/mL (≈ 0.208 µM)
MIC [2]: 0.25 µg/mL (≈ 0.415 µM)
MIC [3]: 0.125 µg/mL (≈ 0.208 µM)
pIC50 [4]: 8.34
MIC [5]: 1 µg/mL (≈ 1.66 µM)

CCn1ncnc1-c1nc(N2CC[C@@H](NC(=O)c3[nH]c(C)c(Cl)c3Br)[C@@H](OC)C2)sc1C(=O)O [Example 13, 2-((3S,4R)-4-(3-bromo-4-chloro-5-methyl-1H-pyrrole-2-carboxamido)-3-methoxypiperidin-1-yl)-4-(1-ethyl-1H-1,2,4-triazol-5-yl) thiazole-5-carboxylic acid]
MIC [1]: 0.125 µg/mL (≈ 0.218 µM)
MIC [2]: 0.125 µg/mL (≈ 0.218 µM)
MIC [3]: 0.125 µg/mL (≈ 0.218 µM)
pIC50 [4]: > 8.60
MIC [5]: 0.015 µg/mL (≈ 0.0262 µM)

COCCn1ncnc1-c1nc(N2CC[C@@H](NC(=O)c3[nH]c(C)c(Br)c3Cl)[C@@H](OC)C2)sc1C(=O)O [Example 21, 2-((3S,4R)-4-(4-bromo-3-chloro-5-methyl-1H-pyrrole-2-carboxamido)-3-methoxypiperidin-1-yl)-4-(1-(2-methoxyethyl)-1H-1,2,4-triazol-5-yl) thiazole-5-carboxylic acid]
MIC [1]: 0.125 µg/mL (≈ 0.207 µM)
MIC [3]: 0.125 µg/mL (≈ 0.207 µM)
pIC50 [4]: > 8.60
MIC [5]: 0.06 µg/mL (≈ 0.0995 µM)

CCO[C@H]1CN(c2nc(-c3ncnn3C)c(C(=O)O)s2)CC[C@H]1NC(=O)c1[nH]c(C)c(Cl)c1Br [Example 10]
MIC [1]: 0.125 µg/mL (≈ 0.218 µM)
MIC [2]: 0.125 µg/mL (≈ 0.218 µM)
MIC [3]: 0.125 µg/mL (≈ 0.218 µM)
pIC50 [4]: > 8.60
MIC [5]: 0.008 µg/mL (≈ 0.014 µM)

2-((3S,4R)-4-(3-bromo-4-chloro-5-methyl-1H-pyrrole-2- carboxamido)-3-fluoropiperidin-1-yl)-4-(1- (cyclopropylmethyl)-1H-1,2,4-triazol-5-yl) thiazole-5- carboxylic acid [Example 17]
Sau_MIC [1]: 0.125 µg/mL
Hinf_MIC [2]: 0.125 µg/mL
Spn_MIC [3]: 0.125 µg/mL
pIC50 [4]: 8.40
Mtu MIC [5]: 0.06 µg/mL

CO[C@H]1CN(c2nc(-c3ncnn3C)c(C(=O)O)s2)CC[C@H]1NC(=O)c1[nH]c(C)c(C#N)c1Br [Example 8, 2-{(3S,4R)-4-[(3-Bromo-4-cyano-5-methyl-1H-pyrrole-2-carbonyl)-amino]-3-methoxy-piperidin-1-yl}-4-(2-methyl-2H-[1,2,4]triazol-3-yl)-thiazole-5-carboxylic acid]
MIC [1]: 0.5 µg/mL (≈ 0.91 µM)
MIC [2]: 2 µg/mL (≈ 3.64 µM)
MIC [3]: 0.125 µg/mL (≈ 0.228 µM)
pIC50 [4]: > 9.60
MIC [5]: < 0.03 µg/mL

CCO[C@H]1CN(c2nc(-c3ncnn3C)c(C(=O)O)s2)CC[C@H]1NC(=O)c1[nH]c(C)c(Br)c1Cl [Example 11, 2-((3S,4R)-4-(4-bromo-3-chloro-5-methyl-1H-pyrrole-2-carboxamido)-3-ethoxypiperidin-1-yl)-4-(1-methyl-1H-1,2,4-triazol-5-yl) thiazole-5-carboxylic acid]
MIC [1]: 0.125 µg/mL (≈ 0.218 µM)
MIC [3]: 0.125 µg/mL (≈ 0.218 µM)
pIC50 [4]: > 8.60
MIC [5]: 0.06 µg/mL (≈ 0.105 µM)

Cc1[nH]c(C(=O)N[C@@H]2CCN(c3nc(-c4ncnn4C)c(C(=O)O)s3)C[C@@H]2F)c(Cl)c1Br [Example 6, 2-((3S,4R)-4-{[(4-Bromo-3-chloro-5-methyl-1H-pyrrol-2-yl)carbonyl]amino}-3-fluoropiperidin-1-yl)-4-(1-methyl-1H-1,2,4-triazol-5-yl)-1,3-thiazole-5-carboxylic acid]
MIC [1]: 0.125 µg/mL (≈ 0.229 µM)
MIC [2]: 0.25 µg/mL (≈ 0.457 µM)
MIC [3]: 0.5 µg/mL (≈ 0.914 µM)
pIC50 [4]: 8.30
MIC [5]: 1 µg/mL (≈ 1.83 µM)

Cc1[nH]c(C(=O)N[C@@H]2CCN(c3nc(-c4ncnn4C)c(C(=O)O)s3)C[C@@H]2OCC2CC2)c(Br)c1Cl [Example 12, 2-((3S,4R)-4-(3-bromo-4-chloro-5-methyl-1H-pyrrole-2-carboxamido)-3-(cyclopropylmethoxy)piperidin-1-yl)-4-(1-methyl-1H-1,2,4-triazol-5-yl) thiazole-5-carboxylic acid]
MIC [1]: 0.125 µg/mL (≈ 0.209 µM)
MIC [2]: 0.125 µg/mL (≈ 0.209 µM)
MIC [3]: 0.125 µg/mL (≈ 0.209 µM)
pIC50 [4]: 8.40
MIC [5]: 0.015 µg/mL (≈ 0.025 µM)

CCn1ncnc1-c1nc(N2CC[C@@H](NC(=O)c3[nH]c(C)c(Br)c3Cl)[C@@H](OC)C2)sc1C(=O)O [Example 14, 2-((3S,4R)-4-(4-bromo-3-chloro-5-methyl-1H-pyrrole-2-carboxamido)-3-methoxypiperidin-1-yl)-4-(1-ethyl-1H-1,2,4-triazol-5-yl) thiazole-5-carboxylic acid]
MIC [1]: 0.125 µg/mL (≈ 0.218 µM)
MIC [2]: 0.125 µg/mL (≈ 0.218 µM)
MIC [3]: 0.125 µg/mL (≈ 0.218 µM)
pIC50 [4]: > 8.60
MIC [5]: 0.03 µg/mL (≈ 0.0524 µM)

COCCn1ncnc1-c1nc(N2CC[C@@H](NC(=O)c3[nH]c(Cl)c(C)c3Cl)[C@@H](OC)C2)sc1C(=O)O [Example 22, 2-((3S,4R)-4-(3,5-dichloro-4-methyl-1H-pyrrole-2-carboxamido)-3-methoxypiperidin-1-yl)-4-(1-(2-methoxyethyl)-1H-1,2,4-triazol-5-yl) thiazole-5-carboxylic acid]
MIC [1]: 0.25 µg/mL (≈ 0.448 µM)
MIC [3]: 0.5 µg/mL (≈ 0.895 µM)
pIC50 [4]: 7.33
MIC [5]: 0.5 µg/mL (≈ 0.895 µM)

CO[C@H]1CN(c2nc(-c3ncnn3C)c(C(=O)O)s2)CC[C@H]1NC(=O)c1[nH]c(Cl)c(C)c1Cl [Example 4, 2-((3S,4R)-4-{[(3,5-Dichloro-4-methyl-1H-pyrrol-2-yl)carbonyl]amino}-3-methoxypiperidin-1-yl)-4-(1-methyl-1H-1,2,4-triazol-5-yl)-1,3-thiazole-5-carboxylic acid]
MIC [1]: 1.26 µg/mL (≈ 2.45 µM)
MIC [2]: 4 µg/mL (≈ 7.78 µM)
MIC [3]: 0.1 µg/mL (≈ 0.194 µM)
pIC50 [4]: 7.52
MIC [5]: 0.125 µg/mL (≈ 0.243 µM)

CCn1ncnc1-c1nc(N2CC[C@@H](NC(=O)c3[nH]c(Cl)c(C)c3Cl)[C@@H](OC)C2)sc1C(=O)O [Example 15, 2-{(3S,4R)-4-[(3,5-Dichloro-4-methyl-1H-pyrrole-2-carbonyl)-amino]-3-methoxy-piperidin-1-yl}-4-(2-ethyl-2H-[1,2,4]triazol-3-yl)-thiazole-5-carboxylic acid]
MIC [1]: 0.25 µg/mL (≈ 0.473 µM)
MIC [2]: 1 µg/mL (≈ 1.89 µM)
MIC [3]: 0.25 µg/mL (≈ 0.473 µM)
pIC50 [4]: 7.35
MIC [5]: 0.5 µg/mL (≈ 0.946 µM)

CO[C@H]1CN(c2nc(-c3ncnn3CC3CC3)c(C(=O)O)s2)CC[C@H]1NC(=O)c1[nH]c(C)c(Br)c1Cl [Example 18, 2-((3S,4R)-4-(4-bromo-3-chloro-5-methyl-1H-pyrrole-2-carboxamido)-3-methoxypiperidin-1-yl)-4-(1-(cyclopropylmethyl)-1H-1,2,4-triazol-5-yl) thiazole-5-carboxylic acid]
MIC [1]: 0.125 µg/mL (≈ 0.209 µM)
MIC [2]: 0.5 µg/mL (≈ 0.835 µM)
MIC [3]: 0.25 µg/mL (≈ 0.417 µM)
pIC50 [4]: 8.40
MIC [5]: 0.06 µg/mL (≈ 0.1 µM)
